Test results as given in the supplement of paper PMC10307832.

Columns and labels:
Assay in all cases: relative viability (nuclei count vs DMSO), 5 days (fraction); higher = more cells survive
MK-2206 + Pemetrexed = compound: NC1(c2ccc(-c3nc4ccn5c(=O)[nH]nc5c4cc3-c3ccccc3)cc2)CCC1 [MK-2206] + Nc1nc2[nH]cc(CCc3ccc(C(=O)N[C@@H](CCC(=O)O)C(=O)O)cc3)c2c(=O)[nH]1 [Pemetrexed] (partner 0.2 µM)
Outline: (§1)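 The day after seeding in 1536-well plates, lung cancer cell lines were treated by pin tool with a single drug, or with a fixed anchor-drug dose together with five library-drug doses (not always all listed) in √10 steps. After 5 days, a combined fix-and-stain solution (final 0.05% Triton X-100, 1% formaldehyde, 1 ug/ml Hoechst) was added. Nuclei counted on 4× images gave relative viability as treated counts over vehicle counts, reported as the median of duplicate plates.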

Pictilisib + Phenformin = compound: CS(=O)(=O)N1CCN(Cc2cc3nc(-c4cccc5[nH]ncc45)nc(N4CCOCC4)c3s2)CC1 [Pictilisib] + N=C(N)NC(=N)NCCc1ccccc1 [Phenformin] (partner 250 µM)
Outline: as §1

Pictilisib + AZD7762 = compound: CS(=O)(=O)N1CCN(Cc2cc3nc(-c4cccc5[nH]ncc45)nc(N4CCOCC4)c3s2)CC1 [Pictilisib] + NC(=O)Nc1cc(-c2cccc(F)c2)sc1C(=O)N[C@H]1CCCNC1 [AZD7762] (partner 0.2 µM)
Outline: as §1

Pictilisib + Crizotinib = compound: CS(=O)(=O)N1CCN(Cc2cc3nc(-c4cccc5[nH]ncc45)nc(N4CCOCC4)c3s2)CC1 [Pictilisib] + C[C@@H](Oc1cc(-c2cnn(C3CCNCC3)c2)cnc1N)c1c(Cl)ccc(F)c1Cl [Crizotinib] (partner 1 µM)
Outline: as §1

MK-2206 + Lapatinib = compound: NC1(c2ccc(-c3nc4ccn5c(=O)[nH]nc5c4cc3-c3ccccc3)cc2)CCC1 [MK-2206] + CS(=O)(=O)CCNCc1ccc(-c2ccc3ncnc(Nc4ccc(OCc5cccc(F)c5)c(Cl)c4)c3c2)o1 [Lapatinib] (partner 2 µM)
Outline: as §1

Cell Line | relative viability (MK-2206 + Pemetrexed; first compound 0.01 µM) | relative viability (MK-2206 + Pemetrexed; first compound 0.03162 µM) | relative viability (MK-2206 + Pemetrexed; first compound 0.3162 µM) | relative viability (MK-2206 + Pemetrexed; first compound 1 µM) | relative viability (Pictilisib + Phenformin; first compound 0.02 µM) | relative viability (Pictilisib + Phenformin; first compound 0.06325 µM) | relative viability (Pictilisib + Phenformin; first compound 0.6325 µM) | relative viability (Pictilisib + Phenformin; first compound 2 µM) | relative viability (Pictilisib + AZD7762; first compound 0.02 µM) | relative viability (Pictilisib + AZD7762; first compound 0.06325 µM) | relative viability (Pictilisib + AZD7762; first compound 0.6325 µM) | relative viability (Pictilisib + AZD7762; first compound 2 µM) | relative viability (Pictilisib + Crizotinib; first compound 0.02 µM) | relative viability (Pictilisib + Crizotinib; first compound 0.06325 µM) | relative viability (Pictilisib + Crizotinib; first compound 0.6325 µM) | relative viability (Pictilisib + Crizotinib; first compound 2 µM) | relative viability (MK-2206 + Lapatinib; first compound 0.01 µM) | relative viability (MK-2206 + Lapatinib; first compound 0.03162 µM) | relative viability (MK-2206 + Lapatinib; first compound 0.3162 µM) | relative viability (MK-2206 + Lapatinib; first compound 1 µM)
NCI-H441 | 0.256 | 0.238 | 0.255 | 0.249 | 0.822 | 0.789 | 0.601 | 0.337 | 1.18 | 1.11 | 1.11 | 0.7 | 0.513 | 0.632 | 0.504 | 0.388 |  |  |  | 
NCI-H1437 | 0.321 | 0.325 | 0.334 | 0.258 | 0.315 | 0.321 | 0.256 | 0.297 | 1.13 | 1.07 | 1.09 | 0.903 | 0.941 | 0.952 | 1.03 | 0.652 | 0.778 | 0.783 | 0.815 | 0.475
PC-14 | 0.129 | 0.14 | 0.164 | 0.144 | 0.858 | 0.719 | 0.621 | 0.386 | 0.399 | 0.366 | 0.246 | 0.155 | 0.909 | 0.928 | 0.926 | 0.681 | 0.297 | 0.316 | 0.287 | 0.221
LCLC-103H | 0.441 | 0.435 | 0.485 | 0.442 | 0.378 | 0.312 | 0.294 | 0.214 | 0.803 | 0.728 | 0.588 | 0.456 | 1.05 | 1.04 | 0.882 | 0.71 |  |  |  | 
H3255 | 0.557 | 0.614 | 0.538 | 0.508 | 0.399 | 0.344 | 0.334 | 0.318 | 0.814 | 0.8 | 0.832 | 0.578 | 0.854 | 0.907 | 0.803 | 0.555 | 0.268 | 0.224 | 0.18 | 0.192
NCI-H2126 | 0.708 | 0.653 | 0.61 | 0.701 | 0.49 | 0.501 | 0.38 | 0.31 | 1.02 | 1.01 | 0.956 | 0.716 | 0.998 | 0.988 | 0.972 | 0.688 | 0.803 | 0.739 | 0.75 | 0.737
HCC-366 | 0.154 | 0.166 | 0.302 | 0.266 | 0.631 | 0.702 | 0.269 | 0.129 | 0.316 | 0.259 | 0.204 | 0.0615 | 0.493 | 0.697 | 0.251 | 0.0577 | 1.05 | 1.09 | 1.08 | 1.16
LU99A | 0.174 | 0.152 | 0.186 | 0.203 | 0.911 | 0.869 | 0.791 | 0.532 | 0.423 | 0.395 | 0.266 | 0.185 | 0.56 | 0.545 | 0.44 | 0.346 | 1.05 | 0.871 | 0.904 | 0.877
HOP-62 | 0.381 | 0.272 | 0.273 | 0.375 | 0.681 | 0.701 | 0.717 | 0.598 | 0.759 | 0.668 | 0.469 | 0.459 | 1.07 | 0.972 | 1.01 | 0.671 | 0.946 | 1.12 | 0.939 | 1.26
HCC-15 | 0.254 | 0.198 | 0.218 | 0.204 | 0.506 | 0.504 | 0.346 | 0.261 | 1.23 | 1.25 | 0.989 | 0.78 | 0.791 | 0.926 | 0.761 | 0.583 | 0.825 | 0.9 | 0.657 | 0.8
HARA | 0.269 | 0.23 | 0.265 | 0.217 | 0.454 | 0.469 | 0.37 | 0.244 | 0.246 | 0.357 | 0.302 | 0.245 | 1.05 | 1.15 | 0.972 | 0.722 | 0.774 | 0.81 | 0.567 | 0.51
NCI-H1355 | 1.04 | 1.02 | 1.02 | 1.04 | 0.493 | 0.467 | 0.393 | 0.248 | 0.678 | 0.689 | 0.546 | 0.362 | 1.1 | 0.983 | 0.876 | 0.606 | 0.97 | 1.04 | 0.851 | 0.743
NCI-H838 | 0.245 | 0.227 | 0.255 | 0.201 | 0.541 | 0.628 | 0.329 | 0.224 | 0.906 | 0.747 | 0.928 | 0.809 | 0.871 | 0.795 | 0.76 | 0.497 | 1.04 | 1.18 | 1.01 | 0.675
HCC-44 | 0.632 | 0.593 | 0.61 | 0.675 | 0.215 | 0.151 | 0.154 | 0.0888 | 0.978 | 0.994 | 1.05 | 1.22 | 0.781 | 0.783 | 0.882 | 0.455 | 1.01 | 1.01 | 1.05 | 1.07
NCI-H1395 | 0.807 | 0.869 | 0.79 | 0.812 | 0.453 | 0.425 | 0.386 | 0.399 | 0.44 | 0.416 | 0.375 | 0.338 |  |  |  |  | 1.01 | 1.3 | 0.774 | 0.759
NCI-H522 | 1.04 | 0.964 | 0.887 | 1 | 0.749 | 0.676 | 0.613 | 0.603 | 0.967 | 0.865 | 0.673 | 0.571 |  |  |  |  |  |  |  | 
NCI-H2342 | 0.663 | 0.782 | 0.675 | 0.738 | 0.581 | 0.586 | 0.472 | 0.355 | 0.444 | 0.515 | 0.34 | 0.414 |  |  |  |  |  |  |  | 
